From PubChem BioAssay (NCI)
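In this assay, cells in 96-well plates receive the compound at five concentrations for 48 hours. Endpoints are linearly interpolated between the surrounding concentrations. TGI: concentration producing complete growth inhibition.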

How the values were obtained:
Experiment in all cases: inhibition of tumour cell growth, NCI panel, 48 h
[1] = system: HCT-116 colon
[2] = system: MDA-MB-231 breast
[3] = system: MCF7 breast
[4] = system: UO-31 renal
[5] = system: 786-0 renal
[6] = system: BT-549 breast
[7] = system: HL-60(TB) leukemia
[8] = system: HS 578T breast
[9] = system: NCI-H522 lung
[10] = system: MALME-3M melanoma
[11] = system: SK-MEL-5 melanoma
[12] = system: DU-145 prostate
[13] = system: CAKI-1 renal
[14] = system: MOLT-4 leukemia
[15] = system: NCI-H23 lung
[16] = system: K-562 leukemia
[17] = system: SK-MEL-28 melanoma
[18] = system: PC-3 prostate
[19] = system: COLO 205 colon
[20] = system: HOP-62 NSCLC
[21] = system: MDA-N
[22] = system: U251 CNS
[23] = system: SF-295 CNS
[24] = system: OVCAR-5 ovarian
[25] = system: EKVX NSCLC
[26] = system: SNB-75 CNS
[27] = system: SNB-19 CNS
[28] = system: TK-10 renal
[29] = system: RPMI-8226 leukemia
[30] = system: NCI/ADR-RES ovarian
[31] = system: HT29 colon
[32] = system: OVCAR-8 ovarian
[33] = system: SN12C renal
[34] = system: HCC-2998 colon
[35] = system: UACC-257 melanoma
[36] = system: CCRF-CEM leukemia
[37] = system: OVCAR-4 ovarian
[38] = system: RXF 393 renal
[39] = system: LOX IMVI melanoma
[40] = system: ACHN renal
[41] = system: T-47D breast
[42] = system: HCT-15 colon
[43] = system: SW-620 colon
[44] = system: SK-MEL-2 melanoma
[45] = system: IGROV1 ovarian
[46] = system: SF-539 CNS
[47] = system: NCI-H226 lung
[48] = system: SR leukemia
[49] = system: M14 melanoma
[50] = system: UACC-62 melanoma
[51] = system: SF-268 CNS
[52] = system: A549 NSCLC
[53] = system: NCI-H460 lung
[54] = system: SK-OV-3 ovarian
[55] = system: OVCAR-3 ovarian
[56] = system: A498 renal
[57] = system: MDA-MB-435
[58] = system: KM12 colon
[59] = system: HOP-92 NSCLC

Compound CC1CC(OP(=O)(OCc2ccccc2)OCc2ccccc2)[C@@H](OCc2ccccc2)C(OCc2ccccc2)C1OCc1ccccc1 (some centres not stated) has a TGI [1] of over 100 µM, a TGI [2] of over 100 µM and a TGI [3] of over 100 µM. For the same compound, the TGI [4] was over 100 µM, the TGI [5] was over 100 µM and the TGI [6] was over 100 µM. The TGI [7] was over 100 µM, the TGI [8] was over 100 µM and the TGI [9] was over 100 µM. It also gave a TGI [10] of over 100 µM, a TGI [11] of over 100 µM and a TGI [12] of over 100 µM. The TGI [13] was over 100 µM, the TGI [14] was over 100 µM and the TGI [15] was over 100 µM. It also gave a TGI [16] of over 100 µM, a TGI [17] of over 100 µM and a TGI [18] of over 100 µM. For the same compound, the TGI [19] was over 100 µM, the TGI [20] was over 100 µM and the TGI [21] was over 100 µM. For the same compound, the TGI [22] was over 100 µM, the TGI [23] was over 100 µM and the TGI [24] was over 100 µM. It also gave a TGI [25] of over 100 µM, a TGI [26] of over 100 µM and a TGI [27] of over 100 µM. For the same compound, the TGI [28] was over 100 µM, the TGI [29] was over 100 µM and the TGI [30] was over 100 µM. The TGI [31] was over 100 µM, the TGI [32] was over 100 µM and the TGI [33] was over 100 µM. It also gave a TGI [34] of over 100 µM, a TGI [35] of over 100 µM and a TGI [36] of over 100 µM. The TGI [37] was over 100 µM, the TGI [38] was 9.8 µM and the TGI [39] was over 100 µM. It also gave a TGI [40] of over 100 µM, a TGI [41] of over 100 µM and a TGI [42] of over 100 µM. The TGI [43] was over 100 µM, the TGI [44] was over 100 µM and the TGI [45] was over 100 µM. For the same compound, the TGI [46] was over 100 µM, the TGI [47] was over 100 µM and the TGI [48] was over 100 µM. For the same compound, the TGI [49] was over 100 µM, the TGI [50] was over 100 µM and the TGI [51] was over 100 µM. The TGI [52] was over 100 µM, the TGI [53] was over 100 µM and the TGI [54] was over 100 µM.

COC(=O)C1c2cc3c(cc2C(OC2OC(C)C(OC)C(C)(OC)C2OC)CC1(C)O)C(=O)c1c(O)cc2c(c1C3=O)OC1OC2(C)C(O)C([N+](C)(C)[O-])C1O (configuration not stated) showed a TGI [1] of over 100 µM, a TGI [2] of 4.74 µM and a TGI [3] of over 100 µM. It also gave a TGI [4] of 5.7 µM, a TGI [5] of over 40.5 µM and a TGI [6] of 9.14 µM. For the same compound, the TGI [8] was 25.6 µM, the TGI [9] was 0.809 µM and the TGI [10] was 1.25 µM. It also gave a TGI [11] of 0.352 µM, a TGI [12] of over 30.1 µM and a TGI [13] of over 28.3 µM. The TGI [14] was 4.97 µM, the TGI [15] was 0.718 µM and the TGI [55] was over 32.3 µM. For the same compound, the TGI [18] was over 40.7 µM, the TGI [19] was 0.293 µM and the TGI [20] was over 100 µM. For the same compound, the TGI [21] was 1.03 µM, the TGI [23] was over 42 µM and the TGI [24] was over 43.6 µM. The TGI [25] was 4.59 µM, the TGI [26] was 1.86 µM and the TGI [27] was over 36.1 µM. The TGI [28] was over 100 µM, the TGI [29] was over 100 µM and the TGI [30] was over 64.3 µM. The TGI [32] was 4.22 µM, the TGI [33] was 1.8 µM and the TGI [56] was 3.7 µM. It also gave a TGI [36] of 0.921 µM, a TGI [37] of over 100 µM and a TGI [38] of 0.977 µM. For the same compound, the TGI [39] was 3.38 µM, the TGI [40] was over 100 µM and the TGI [41] was 0.847 µM. The TGI [42] was over 100 µM, the TGI [43] was over 23.8 µM and the TGI [44] was 0.641 µM. It also gave a TGI [45] of 4.22 µM, a TGI [49] of 3.64 µM and a TGI [50] of 0.311 µM. It also gave a TGI [51] of over 21.4 µM, a TGI [52] of over 75.8 µM and a TGI [54] of over 64.1 µM.

In the case of CCCNC(=O)NNC(=O)c1c[nH]c2nc(C)ccc2c1=O, the TGI [1] is reported as over 100 µM, the TGI [2] is reported as over 100 µM and the TGI [3] is reported as over 100 µM. The TGI [4] was over 100 µM, the TGI [5] was over 100 µM and the TGI [6] was over 100 µM. It also gave a TGI [7] of over 100 µM, a TGI [8] of over 100 µM and a TGI [9] of over 100 µM. For the same compound, the TGI [10] was over 100 µM, the TGI [11] was over 100 µM and the TGI [12] was over 100 µM. For the same compound, the TGI [13] was over 100 µM, the TGI [14] was over 100 µM and the TGI [15] was over 100 µM. It also gave a TGI [16] of over 100 µM, a TGI [55] of over 100 µM and a TGI [17] of over 100 µM. The TGI [18] was over 100 µM, the TGI [19] was over 100 µM and the TGI [20] was over 100 µM. The TGI [21] was over 100 µM, the TGI [22] was over 100 µM and the TGI [23] was over 100 µM. The TGI [24] was over 100 µM, the TGI [25] was over 100 µM and the TGI [57] was over 100 µM. The TGI [27] was over 100 µM, the TGI [28] was over 100 µM and the TGI [29] was over 100 µM. It also gave a TGI [30] of over 100 µM, a TGI [31] of over 100 µM and a TGI [32] of over 100 µM. The TGI [33] was over 100 µM, the TGI [56] was over 100 µM and the TGI [35] was over 100 µM. For the same compound, the TGI [36] was over 100 µM, the TGI [37] was over 100 µM and the TGI [38] was over 100 µM. The TGI [39] was over 100 µM, the TGI [58] was over 100 µM and the TGI [40] was over 100 µM. The TGI [41] was over 100 µM, the TGI [42] was over 100 µM and the TGI [43] was over 100 µM. It also gave a TGI [44] of over 100 µM, a TGI [45] of over 100 µM and a TGI [47] of over 100 µM. For the same compound, the TGI [49] was over 100 µM, the TGI [50] was over 100 µM and the TGI [51] was over 100 µM. For the same compound, the TGI [52] was over 100 µM and the TGI [53] was over 100 µM.

In the case of O=C(O)C(O)C(O)C(O)C(O)c1nc2ccccc2s1 (configuration not stated), the TGI [1] is reported as 30.1 µM, the TGI [2] is reported as 31.9 µM and the TGI [3] is reported as 33.1 µM. For the same compound, the TGI [4] was 30.1 µM, the TGI [5] was 30.4 µM and the TGI [6] was 63.2 µM. For the same compound, the TGI [7] was 46 µM, the TGI [8] was 60.2 µM and the TGI [9] was 27.1 µM. For the same compound, the TGI [10] was 36.7 µM, the TGI [11] was 74.1 µM and the TGI [12] was 31.2 µM. It also gave a TGI [13] of 33.5 µM, a TGI [15] of 66.1 µM and a TGI [55] of 31.4 µM. For the same compound, the TGI [17] was 38 µM, the TGI [18] was 30 µM and the TGI [19] was over 100 µM. The TGI [20] was 33.5 µM, the TGI [21] was 33.2 µM and the TGI [22] was 29.5 µM. The TGI [23] was 31.9 µM, the TGI [24] was 72.9 µM and the TGI [25] was 35.8 µM. The TGI [57] was 31.8 µM, the TGI [26] was 34.7 µM and the TGI [27] was 49.8 µM. For the same compound, the TGI [28] was 29.3 µM, the TGI [29] was 68.8 µM and the TGI [30] was over 100 µM. The TGI [31] was 41.9 µM, the TGI [32] was 37.4 µM and the TGI [33] was 34.8 µM. For the same compound, the TGI [56] was 63.7 µM, the TGI [35] was 30.9 µM and the TGI [36] was over 100 µM. For the same compound, the TGI [37] was 50.2 µM, the TGI [38] was 32.6 µM and the TGI [39] was 36.7 µM. It also gave a TGI [58] of 71.1 µM, a TGI [40] of 33.2 µM and a TGI [41] of 52.7 µM. It also gave a TGI [42] of 82.9 µM, a TGI [43] of 54.7 µM and a TGI [44] of 36.5 µM. It also gave a TGI [45] of 24.7 µM, a TGI [46] of 34.1 µM and a TGI [47] of 66.4 µM. For the same compound, the TGI [59] was 40.1 µM, the TGI [49] was 45.7 µM and the TGI [50] was 28.8 µM. The TGI [51] was 29 µM, the TGI [52] was 39.3 µM and the TGI [53] was 31.6 µM. For the same compound, the TGI [54] was 34.4 µM.
